In patent US20230086007A1, “USE OF DENATONIUM BENZOATE AS A SEED TREATMENT FOR CROPS AS BIRD AND/OR INSECT REPELLENT” (KWS SAAT SE & Co. KGaA, priority 2020, published 2023):

System: corn seeds
Assay: Phytotoxicity: cold test germination rate (CT) of treated corn seeds
Details: for ΔCT: vs no Bitrex
Protocol: In order to evaluate the phytotoxicity of different corn seed treatments, safety tests were conducted. Germination rates of corn seeds treated with various concentrations of denatonium benzoate (Bitrex®) [in g per unit, where 1 unit is 50.000 seeds] were counted after five days at 25° C. Cold test germination rates (CT) were counted after 7 days at 10° C. and 5 days at 25° C. The treatments were compared to untreated seeds.
KF=germination rates counted after 5 days at 25° C. and CT=cold test germination rates counted after 7 days at 10° C. and 5 days at 25° C.

[1] = ø of varieties and chemicals, Bitrex 0.2 g/u
[2] = ø of varieties and chemicals, Bitrex 0.5 g/u
[3] = ø of varieties and chemicals, Bitrex 1.0 g/u
[4] = ø of varieties and chemicals, Bitrex 2.0 g/u
[5] = ø of varieties and chemicals, Bitrex 5.0 g/u
[6] = ø of varieties, chemical no, Bitrex 0.2 g/u
[7] = ø of varieties, chemical no, Bitrex 0.5 g/u
[8] = ø of varieties, chemical no, Bitrex 1.0 g/u
[9] = ø of varieties, chemical no, Bitrex 2.0 g/u
[10] = ø of varieties, chemical no, Bitrex 5.0 g/u
[11] = ø of varieties, with MaximXL, Bitrex 0.2 g/u
[12] = ø of varieties, with MaximXL, Bitrex 0.5 g/u
[13] = ø of varieties, with MaximXL, Bitrex 1.0 g/u
[14] = ø of varieties, with MaximXL, Bitrex 2.0 g/u
[15] = ø of varieties, with MaximXL, Bitrex 5.0 g/u
[16] = ø of varieties, with RedigoM, Bitrex 0.2 g/u
[17] = ø of varieties, with RedigoM, Bitrex 0.5 g/u
[18] = ø of varieties, with RedigoM, Bitrex 1.0 g/u
[19] = ø of varieties, with RedigoM, Bitrex 2.0 g/u
[20] = ø of varieties, with RedigoM, Bitrex 5.0 g/u

For `CC[N+](CC)(CC(=O)Nc1c(C)cccc1C)Cc1ccccc1.O=C([O-])c1ccccc1` [Bitrex, N-Benzyl-2-(2,6-dimethylanilino)-N, N-diethyl-2-oxoethan-1-aminium benzoate], the ΔCT (corn KXB6432, chemical no, Bitrex 0.2 g/u) was 5.5%, the ΔCT (corn KXB6432, chemical no, Bitrex 0.5 g/u) was 5.0% and the ΔCT (corn KXB6432, chemical no, Bitrex 1.0 g/u) was 4.5%. The ΔCT (corn KXB6432, chemical no, Bitrex 2.0 g/u) was −2.0%, the ΔCT (corn KXB6432, chemical no, Bitrex 5.0 g/u) was −2.0% and the ΔCT (corn KXB6432, with MaximXL, Bitrex 0.2 g/u) was 1.0%. It also gave a ΔCT (corn KXB6432, with MaximXL, Bitrex 0.5 g/u) of 0.5%, a ΔCT (corn KXB6432, with MaximXL, Bitrex 1.0 g/u) of −1.0% and a ΔCT (corn KXB6432, with MaximXL, Bitrex 2.0 g/u) of −2.5%. The ΔCT (corn KXB6432, with MaximXL, Bitrex 5.0 g/u) was 0.0%, the ΔCT (corn KXB6432, with RedigoM, Bitrex 0.2 g/u) was −0.5% and the ΔCT (corn KXB6432, with RedigoM, Bitrex 0.5 g/u) was −1.0%. The ΔCT (corn KXB6432, with RedigoM, Bitrex 1.0 g/u) was 2.0%, the ΔCT (corn KXB6432, with RedigoM, Bitrex 2.0 g/u) was 1.0% and the ΔCT (corn KXB6432, with RedigoM, Bitrex 5.0 g/u) was −1.0%. It also gave a ΔCT [1] of 1.8%, a ΔCT [2] of 1.3% and a ΔCT [3] of 2.4%. It also gave a ΔCT [4] of 0.3%, a ΔCT [5] of 1.1% and a ΔCT [6] of 5.8%. It also gave a ΔCT [7] of 4.3%, a ΔCT [8] of 7.2% and a ΔCT [9] of 2.8%. The ΔCT [10] was 4.5%, the ΔCT [11] was −0.5% and the ΔCT [12] was −0.7%. For the same molecule, the ΔCT [13] was −2.0%, the ΔCT [14] was −1.8% and the ΔCT [15] was −0.5%. The ΔCT [16] was 0.0%, the ΔCT [17] was 0.5% and the ΔCT [18] was 2.0%. The ΔCT [19] was −0.2%, the ΔCT [20] was −0.7% and the “CT cold test germination rate, 7 days at 10° C. and 5 days at 25° C.” value (from here on “CT cold test germination rate, 7 days”) [1] was 97.0%. For the same molecule, the “CT cold test germination rate, 7 days” value [2] was 96.6%, the “CT cold test germination rate, 7 days” value [3] was 97.7% and the “CT cold test germination rate, 7 days” value [4] was 95.5%. For the same molecule, the “CT cold test germination rate, 7 days” value [5] was 96.3%, the “CT cold test germination rate, 7 days” value [6] was 94.8% and the “CT cold test germination rate, 7 days” value [7] was 93.3%. For the same molecule, the “CT cold test germination rate, 7 days” value [8] was 96.3%, the “CT cold test germination rate, 7 days” value [9] was 91.8% and the “CT cold test germination rate, 7 days” value [10] was 93.5%. For the same molecule, the “CT cold test germination rate, 7 days” value [11] was 99.0%, the “CT cold test germination rate, 7 days” value [12] was 98.8% and the “CT cold test germination rate, 7 days” value [13] was 97.5%. The “CT cold test germination rate, 7 days” value [14] was 97.8%, the “CT cold test germination rate, 7 days” value [15] was 99.0% and the “CT cold test germination rate, 7 days” value [16] was 97.3%. For the same molecule, the “CT cold test germination rate, 7 days” value [17] was 97.8%, the “CT cold test germination rate, 7 days” value [18] was 99.3% and the “CT cold test germination rate, 7 days” value [19] was 97.0%. For the same molecule, the “CT cold test germination rate, 7 days” value [20] was 96.5%.
